According to patent US8343990B2, “Substituted cyclopropyl compounds, compositions containing such compounds and methods of treatment” (Merck Sharp & Dohme Corp., priority 2008, dated 2013):
pEC50: −log10 of the molar value.

These molecules were tested against T1, GPR119 receptor (UniProt Q8TDV5, S309L, species not given) (assay: GPR119 signaling, cyclic AMP (cAMP) homogenous time resolved fluorescence (HTRF) assay). Details: CHO cells with Gα15 and murine GPR119, or HEK293 Flp-In cells with human GPR119 S309L; table does not say which; read-out: Activity: inflection points, denoted as EC50 values (agonist activation of GPR119, cAMP).
T1 sequence (Q8TDV5 1-335 S309L): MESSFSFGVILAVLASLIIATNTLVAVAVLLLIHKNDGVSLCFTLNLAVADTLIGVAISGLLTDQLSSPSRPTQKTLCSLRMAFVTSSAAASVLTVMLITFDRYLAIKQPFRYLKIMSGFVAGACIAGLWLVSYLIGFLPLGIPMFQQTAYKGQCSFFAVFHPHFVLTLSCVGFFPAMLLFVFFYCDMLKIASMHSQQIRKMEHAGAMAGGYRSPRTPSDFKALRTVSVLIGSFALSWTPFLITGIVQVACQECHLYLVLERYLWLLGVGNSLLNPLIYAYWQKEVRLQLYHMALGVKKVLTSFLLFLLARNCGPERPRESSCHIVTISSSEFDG
Type: cell-based
Method in brief: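 Agonist-induced cAMP measured in CHO cells expressing Gα15 plus murine GPR119, or HEK293 Flp-In cells expressing human S309L variant. Suspended cells exposed to compound titration 60 min at room temperature, lysed, HTRF read after 60 min; EC50 and efficacy versus internal agonist from 4-parameter fit.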

Row | Compound | pEC50
1 | Fc1cc(OC[C@@H]2C[C@H]2CC2CCN(c3ncc(Cl)cn3)CC2)ccc1-c1nnc(C2CC2)o1 (racemic) [Ex 111, rac-trans 5-chloro-2-{4-[(2-{[4-(5-cyclopropyl-1,3,4-oxadiazol-2-yl)-3-fluorophenoxy]methyl}cyclopropyl)methyl]piperidin-1-yl}pyrimidine] | 7.30 to 8.00
2 | Clc1cnc(N2CCC(C3CC3CCOc3ccc(-n4ccnn4)cc3)CC2)nc1 (racemic) [Ex 27, rac cis-5-chloro-2-[4-(2-{2-[4-(1H-1,2,3-triazol-1-yl)phenoxy]ethyl}cyclopropyl)piperidin-1-yl]pyrimidine] | > 8.00
3 | Cc1nc(C#N)cc(OCC[C@@H]2C[C@@H]2C2CCN(c3ccc(Cl)cn3)CC2)n1 (racemic) [Ex 43, Rac-cis-6-(2-{2-[1-(5-chloropyridin-2-yl)piperidin-4-yl]cyclopropyl}ethoxy)-2-methylpyrimidine-4-carbonitrile] | > 8.00
4 | N#Cc1ccc(OCC[C@@H]2C[C@@H]2C2CCN(c3ncc(Cl)cn3)CC2)cn1 (racemic) [Ex 54, Rac-cis-5-(2-{2-[1-(5-chloropyrimidin-2-yl)piperidin-4-yl]cyclopropyl}ethoxy)pyridine-2-carbonitrile] | 6.70 to 7.30
5 | Cc1cnc(N2CCC(C3CC3CCOc3cc(C#N)nc(C)n3)CC2)nc1 (single isomer, unassigned) [Ex 39, Chiral-cis-2-methyl-6-(2-{2-[1-(5-methylpyrimidin-2-yl)piperidin-4-yl]cyclopropyl}ethoxy)pyrimidine-4-carbonitrile] | > 8.00
6 | N#Cc1ccc(OCC2CC2CC2CCN(c3ncc(Cl)cn3)CC2)c(F)c1 (racemic) [Ex 115, rac-trans-4-[((1S,2S)-2-{[1-(5-chloropyrimidin-2-yl)piperidin-4-yl)methyl}cyclopropyl)methoxy]-3-fluorobenzonitrile] | 7.30 to 8.00
7 | Fc1cc(OCCC2CC2C2CCN(c3ncc(Cl)cn3)CC2)ccc1-n1cnnn1 (single isomer, unassigned) [Ex 83dF, cis-5-chloro-2-[4-(2-{2-[3-fluoro-4-(1H-tetrazol-1-yl)phenoxy]ethyl}cyclopropyl)piperidin-1-yl]pyrimidine] | 7.30 to 8.00
8 | Cc1nc(C#N)cc(OCC[C@@H]2C[C@@H]2C2CCN(c3ncc(F)cn3)CC2)n1 (racemic) [Ex 53, Rac-cis-6-(2-{2-[1-(5-fluoropyrimidin-2-yl)piperidin-4-yl]cyclopropyl}ethoxy)-2-methylpyrimidine-4-carbonitrile] | > 8.00
9 | O=C(NC1CC1)c1ccc(OCC[C@H]2C[C@@H]2C2CCN(c3ncc(Cl)cn3)CC2)cc1F [Ex 93, 4-(2-{(1R,2R)-2-[1-(5-chloropyrimidin-2-yl)piperidin-4-yl]cyclopropyl}ethoxy)-N-cyclopropyl-2-fluorobenzamide] | > 8.00
10 | Clc1cnc(N2CCC(C3CC3CCOc3ccc(-n4ncnn4)cc3)CC2)nc1 (racemic) [Ex 31, rac cis-5-chloro-2-[4-(2-{2-[4-(2H-tetrazol-2-yl)phenoxy]ethyl}cyclopropyl)piperidin-1-yl]pyrimidine] | 7.30 to 8.00
11 | Clc1cnc(N2CCC(C3CC3CCOc3ccc(-c4ncon4)cc3)CC2)nc1 (racemic) [Ex 17, rac cis-5-chloro-2-[4-(2-{2-[4-(1,2,4-oxadiazol-3-yl)phenoxy]ethyl}cyclopropyl)piperidin-1-yl]pyrimidine] | 6.70 to 7.30
12 | O=C(NC1CC1)c1ccc(OC[C@@H]2C[C@H]2CC2CCN(c3ncc(Cl)cn3)CC2)cc1F (racemic) [Ex 106, Rac-trans 4-[(2-{[1-(5-chloropyrimidin-2-yl)piperidin-4-yl]methyl}cyclopropyl)methoxy]-N-cyclopropyl-2-fluorobenzamide] | > 8.00
13 | Cc1nc(C#N)cc(OC[C@@H]2C[C@H]2CC2CCN(c3ncc(Cl)cn3)CC2)n1 (racemic) [Ex 113, rac-trans-6-[(2-{[1-(5-chloropyrimidin-2-yl)piperidin-4-yl]methyl}cyclopropyl)methoxy]-2-methylpyrimidine-4-carbonitrile] | 6.70 to 7.30
14 | Cc1nnc(-c2ccc(OC[C@H]3C[C@@H]3CC3CCN(c4ncc(Cl)cn4)CC3)cc2F)o1 [Ex 110, 5-chloro-2-{4-[((1S,2S)-2-{[3-fluoro-4-(5-methyl-1,3,4-oxadiazol-2-yl)phenoxy]methyl}cyclopropyl)methyl]piperidin-1-yl}pyrimidine] | 7.30 to 8.00
15 | Cc1cnc(N2CCC(C3CC3CCOc3ccc(-n4cnnn4)c(F)c3)CC2)nc1 (racemic) [Ex 30e, rac cis-2-[4-(2-{2-[3-fluoro-4-(1H-tetrazol-1-yl)phenoxy]ethyl)cyclopropyl)piperidin-1-yl]-5-methylpyrimidine] | > 8.00
16 | Cc1cnc(N2CCC(C3CC3CCOc3ccc(-n4ccnn4)cc3)CC2)nc1 (racemic) [Ex 27c, rac cis-5-methyl-2-[4-(2-{2-[4-(1H-1,2,3-triazol-1-yl)phenoxy]ethyl}cyclopropyl)piperidin-1-yl]pyrimidine] | 7.30 to 8.00
17 | Cc1nc(C#N)cc(OCCC2CC2C2CCN(c3ncc(Cl)cn3)CC2)n1 (racemic) [Ex 100, rac trans 6-(2-{2-[1-(5-chloropyrimidin-2-yl)piperidin-4-yl]cyclopropyl}ethoxy)-2-methylpyrimidine-4-carbonitrile] | 7.30 to 8.00
